Here are results for six compounds from patent US20240082416A1, “AMATOXIN ANALOGS AND USES THEREOF” (THE UNIVERSITY OF BRITISH COLUMBIA, priority 2020, published 2024).

Data set [1] can be described thus: Cell viability assay (BrdU incorporation) on HEK293-OATP1B3 cells. Format: cell-based, human. Conditions: human, HEK293-OATP1B3 cells; for viability at 96 h, 1 µM: highest used concentration of 1 μM. On the procedure: (§1) . HEK293 and HEK-OATP1B3 cells were plated at 2.5×10^3 cells/well in a 1:1 mixture of Ham's F12 with DMEM containing 10% charcoal-stripped fetal calf serum (FCS) onto poly-D-lysine-coated 96-well plates and grown for 24 hours. Subsequently, cells were incubated with amanitin analogs at 8 different concentrations (1×10^−6 M to 1.28×10^−11 M, serial 1:5 dilutions). Following 96 h of drug exposure, cell viability was determined by a BrdU incorporation assay (Cell Proliferation ELISA, BrdU, Roche) and chemiluminescence was measured using a FLUOstar Optima plate reader (BMG LABtech). Data analysis was performed with GraphPad Prism 8 (GraphPad Software, Inc., La Jolla, CA) software to plot curve fits.
For orientation: Incorporation of labelled thymidine or its analogues reports DNA synthesis.

Data set [2] concerns the target T1, Pol II (Homo sapiens, UniProt P24928).
T1 construct: HeLaScribe® nuclear extract containing Pol II and all other transcription factors; purchased Promega; host or cells: HeLa nuclear extract (endogenous protein)
Briefly: In vitro transcription runoff assay using HeLaScribe nuclear extract. Conditions: for Transcription activity E (%): mean ± standard deviation. The class given is biochemical. An excerpt:
(h) In vitro transcription assay of synthetic amanitins containing analogs of Hyp: Primers were purchased from IDT via standard phosphoramidite chemistry. dNTP and rNTP were purchased from Thermofisher. GoTaq polymerase and HeLaScribe*Nuclear Extract in vitro Transcription System was purchased from Promega. Taq polymerase was purchased from NEB. [^32P] α-dGTP (3000 Ci/mmol 10 mCi/ml EasyTide) and [^32P] α-GTP (3000 Ci/mmol 10 mCi/ml EasyTide) were purchased from Perkin Elmer. QIAquick PCR purifcation kit was purchased from Qiagen. AcGFP1-N1 was a gift (Addgene plasmid #54705; http://n2t.net/addgene:54705; RRID:Addgene_54705). DNA Primer sequences were:
The DNA template for transcription runoff was synthesized by PCR with template pAcGFP-N1, and primers P1 and P2. To a final volume of 20 μL, 1 x GoTaq Buffer, 250 μM of each dNTP, 500 nM of each primers P1 and P2, […] pAcGFP-N1 and 0.05 U/μL GoTaq were employed to thermocycle for 30 cycles (30 s at 95° C., 30 s at 50° C. and 60 s at 72° C., Bio-Rad). A 1 μL aliquot of the amplified solution was resolved with 6×DNA loading dye in a 1% agarose gel containing […] and then visualized using GelDoc XR imager (Bio-Rad). Purification was completed via QIAquick PCR purification kit (Qiagen). The radioactive chromatographic standard was synthesized by PCR with template pAcGFP-N1, and primers P3 and P4. To a final volume of 50 μL, 1 x Thermopol Buffer, 200 μM of each dNTP, 500 nM of each primers P3 and P4, 10 pg/μL pAcGFP-N1 and 0.02 U/μL Vent polymerase, 1 μL [^32P] α-dGTP were employed to thermocycle for 30 cycles (30 s at 95° C., 30 s at 62° C. and 30 s at 72° C., Bio-Rad). A 1 μL aliquot of the amplified solution was resolved with 6×DNA loading dye in 8% denaturing PAGE and then visualized by autoradiography via the Typhoon 9200 imager (Molecular namics-Amersham-GE). Purification was completed via QIAquick PCR purification kit (Qiagen). The transcription runoff assay was modified from HeLaScribe® Nuclear Extract in vitro Transcription System (Promega). […]. The pellet was resolved by 8% denaturing PAGE and then visualized by autoradiography via the Typhoon 9200 imager (Molecular dynamics-Amersham-GE). Dosimetry was calculated by ImageJ, and the 3 parameter logistic fit was completed by Origin 2019 (OriginLab). […]
All data were presented in mean±standard deviation (n=3).

Data set [3] is described as follows: Viability assay against CHO cells (MTT colorimetric assay). The class given is cell-based, Chinese hamster. The settings on record: Chinese hamster, CHO cells, 72 h, replicates n = 1, 2, 3, read-out: % viable cells. On the procedure:
(§2) (f) Cell culture: Cells were cultured in Minimum Essential Medium Eagle—Alpha Modification (α-MEM) or […] Dulbecco's Modified Eagle Medium (DMEM), purchased from Gibco. […] All cell culture plastic ware was obtained from Coming or Falcon. Cells were cultured at 37° C. in a humidified chamber with 5% CO2. When used in cell culture, DMSO was purified by filtration through a […] filter. All experiments were carried out in a laminar flow culture cabinet, unless otherwise noted.
(§3) Immortalized CHO cells had been stored in liquid nitrogen. To revive cells, a 1-mL tube of the frozen cells in medium containing 10% DMSO was warmed in a 30° C. water bath and diluted with 9 mL of fresh media. Media contained 10% FBS and 100 U/mL penicillin and […] streptomycin, unless otherwise indicated. The cells were incubated in a T-25 flask at 37° C. at 5% CO2. After 24 hours, the medium was aspirated and replaced with fresh medium. When cells reached a level of 90-100% confluence, they were sub-cultured. […] Once the cells were detached from the tissue culture flask, 3-5 mL media was added to quench the trypsin and the mixture was transferred to a 10 mL centrifuge tube. The mixture was centrifuged for 5 min at […], and the supernatant was discarded. The cells were suspended in fresh medium, diluted as required, and transferred to a new culture flask.
(§4) To assay cell viability, a nearly confluent tissue culture flask was trypsinized, and the cells were counted following treatment with Trypan blue, using a hemocytometer. The cells were then diluted to the appropriate stock concentrations in fresh medium and transferred in 100 μL to a 96-well plate using a multi-channel pipette. The number of cells plated varied from experiment to experiment. These were incubated at 37° C. and 5% CO2 for a 24-hour period to allow for adherence. The medium was aspirated, and fresh medium was added, which contained the desired additives in DMSO. The cells were then re-incubated for 72 h. At the completion of the experiment, a 100 μL aliquot of 25 mg/mL MTT in phosphate-buffered saline (PBS) was added to each well. The plate was incubated three hours further to allow for the formation of the formazan product in viable cells. The media was carefully aspirated, and the purple product was solubilized in DMSO. […] Data was processed in Microsoft Excel and GraphPad Prism. Experiments were performed in triplicates unless otherwise noted, and the error bars were calculated as the standard error of the mean.
(§5) Each cell line was plated in a 96-well plate, with 100 μL of the stock solution per well (5000 cells per well) and incubated for 24 hours. […] The cells were incubated for 72 hours, at which point viability was assessed as described.

The test system of data set [4] is CHO cells. The description is as above. Format: cell-based, Chinese hamster. The settings on record: for % viable cells: 72 h, replicates n = 1, 2, 3, listed as N3-Pro-amanitin (3). On the procedure: as §2, §3, §4, §5
The test system of data set [5] is HEK293-OATP1B3 cells. Briefly: Cell viability assay (BrdU incorporation) on HEK293-OATP1B3 cells. Format: cell-based, human. The settings on record: HEK293-OATP1B3 vs HEK293. On the procedure: as §1
For data set [6], the target named is RNA-polymerase II (Homo sapiens, UniProt P24928). The settings on record: cited from earlier work.
The target in data set [7] is eukaryotic RNA polymerase II (Pol II) (Homo sapiens, UniProt P24928). Conditions: literature; cited from earlier work.
Data set [8] deals with CHO cells. The settings on record: background statement, read-out: Ki (CHO cells readily killed); cited from earlier work.
Data set [9] relates to HEK293 cells. Format: cell-based, human. The settings on record: wt-HEK293 cells lacking OATP1B3; 96 h. How it is done:
as §1

Where “and” joins values, the source holds several entries; their conditions need not be identical. Identical values can stand only once. Starred links: 1 amine or outer side, 2 acyl side, 3 side chain; linkers in the order of their positions; H or OH if unused. Positions of bridges follow the written chain, without caps; N, C: chain ends. Non-standard residues stand in square brackets, D forms with d. Residues, ends and D or L forms follow the SMILES beside them. Trp(2-yl) = O=C([C@H](Cc1c([*:3])[nH]c2ccccc12)N[*:1])[*:2]; X2 = [N-]=[N+]=N[C@@H]1C[C@@H](C(=O)[*:2])N([*:1])C1; Ile(4R-OH,5-OH) = C[C@H]([C@H](N)C(=O)O)[C@@H](O)CO

By IC50 is commonly meant the concentration that gives 50% inhibition. Consider `CC[C@H](C)[C@@H]1NC(=O)CNC(=O)[C@@H]2Cc3c([nH]c4ccccc34)SC[C@H](NC(=O)CNC1=O)C(=O)N[C@@H](CC(N)=O)C(=O)N1C[C@H](N=[N+]=[N-])C[C@H]1C(=O)N[C@@H]([C@@H](C)[C@@H](O)CO)C(=O)N2` [Compound 3, N3-Pro-amanitin] (cyclo(CN[X2][Ile(4R-OH,5-OH)][Trp(2-yl)]GIG); thioether 1-5), for which the viability at 96 h, 1 µM in data set [1] (HEK293 cells overexpressing OATP1B3 (HEK293-OATP1B3)) came out at 68%. Also, the IC50 in data set [2] (IC50 (nM), Table 12, n = 3, high values estimated from activity at [I]=1.0 μM) is greater than 1000 nM. Further, the “inhibitory effects” value in data set [2] (up to 1 μM concentrations) was “did not exhibit any noticeable inhibitory effects”. Further, the viability at 72 h, 1e-05 M in data set [3] (1e-005 M) was 107%. Besides, in data set [3] (1.25e-006 M), the viability at 72 h, 1.25e-06 M came to 105%. Besides, in data set [3] (1.56e-007 M), the viability at 72 h, 1.56e-07 M worked out at 101%. In addition, in data set [3] (2e-005 M), the viability at 72 h, 2e-05 M amounted to 112%. The viability at 72 h, 2.5e-06 M in data set [3] (2.5e-006 M) was 104%. Also, the viability at 72 h, 3.125e-07 M in data set [3] (3.125e-007 M) is 99%. Also, the viability at 72 h, 5e-06 M in data set [3] (5e-006 M) turned out to be 104%. The viability at 72 h, 6.25e-07 M in data set [3] (6.25e-007 M) was 101%. Further, the “% viable cells” value in [4] (1e-005 M) was 100% and 94%; in data set [4] (1.25e-006 M) it was 88% and 89%; in data set [4] (1.56e-007 M) it was 89% and 88%; in data set [4] (2.5e-006 M), 95% and 88%; in data set [4] (3.125e-007 M), 89% and 91%; in [4] (5e-006 M) it was 88% and 89%. For the same compound, the “% viable cells” value in data set [4] (6.25e-007 M) was 93% and 87%.
`CC[C@H](C)[C@@H]1NC(=O)CNC(=O)[C@@H]2Cc3c([nH]c4cc(O)ccc34)[S@+]([O-])C[C@H](NC(=O)CNC1=O)C(=O)N[C@@H](CC(=O)O)C(=O)N1C[C@H](O)C[C@H]1C(=O)N[C@@H]([C@@H](C)[C@@H](O)CO)C(=O)N2` [β-amanitin, reference compound]: 8.5 ± 1.1 nM corresponded to half-maximal inhibition in [1] (HEK293-OATP1B3 cells (OATP1B3 overexpressing HEK293), 96 h) (IC50 at 96 h). Further, the viability at 96 h, 1 µM in data set [1] (HEK293-OATP1B3 cells (OATP1B3 overexpressing HEK293)) is 0%. Further, in [5], the “fold increase in toxicity / reduction of the IC50 value on HEK293-OATP1B3 relative to HEK293 cells” value is on record as 15 fold.
Broadly, the Kd is the constant that tells how readily two partners part at equilibrium. For amanitin, the Kd in data set [6] was 3 nM.
As a reminder, the Ki is a measure of affinity in units of concentration, obtained from inhibition or displacement. amanullin: the Ki in data set [7] was 10 to 40 nM.
For proamanullin, in data set [7], the Ki is 5000 to 20000 nM.
With “α-amanitin [Compound 1, reference compound]”, the Ki in [8] is roughly 500 nM. Moreover, the “Transcription activity E (%)” value in data set [2] (1 nM) turned out to be 85.0 ± 2.4%; in [2] (3 nM) it was 69.5 ± 9.4%; in data set [2] (10 nM), 48.1 ± 9.8%; in [2] (30 nM), 22.9 ± 2.6%; in data set [2] (100 nM) it was 9.5 ± 4.1%. The IC50 was 350 to 1100 nM in [4] (CHO cells, MTT assay, control) and 130 ± 80 nM in [9].
